# Laboratory results as given in patent EP1336409B1 (priority 1995, dated 1997).
# Tested on: mechanical allodynia
# Conditions: rat, in vivo
Substance,Effective intrathecal doses [µg],apparent order of potency for suppression of allodynia,block of mechanical allodynia
Met(0)^12-SNX-111 [SNX-279],0.1 to 0.3,SNX-111 =SNX-273 > SNX-279,block mechanical allodynia significantly
[ala^12-SNX-111 [SNX-273],0.1 to 0.3,SNX-111 =SNX-273 > SNX-279,block mechanical allodynia significantly
